{"source": "patent US20260248799A1", "about": "“COMBINATIONS OF RETINALDEHYDE DEHYDROGENASE 1 (RALDH1) INHIBITORS AND IMMUNOSTIMULATORS AND METHODS USING SAME” (The Trustees of the University of Pennsylvania, priority 2023, published 2026)", "key": {"Bradykinin B2": {"biological_target": "T1, Bradykinin B2 (Homo sapiens, UniProt P30411)", "T1 construct": "purchased Eurofins Cereps Panlabs", "T1 sequence (P30411 whole entry)": "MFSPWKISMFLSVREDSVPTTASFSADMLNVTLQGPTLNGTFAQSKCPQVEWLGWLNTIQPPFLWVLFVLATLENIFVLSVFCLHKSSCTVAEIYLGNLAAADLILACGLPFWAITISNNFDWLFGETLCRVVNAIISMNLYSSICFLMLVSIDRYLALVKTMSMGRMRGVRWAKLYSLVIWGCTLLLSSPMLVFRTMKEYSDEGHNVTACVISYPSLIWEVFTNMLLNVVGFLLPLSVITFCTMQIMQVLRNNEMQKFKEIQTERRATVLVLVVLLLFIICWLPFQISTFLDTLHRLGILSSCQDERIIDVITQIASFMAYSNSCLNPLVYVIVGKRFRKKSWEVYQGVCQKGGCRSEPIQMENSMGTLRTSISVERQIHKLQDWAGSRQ", "assay": "Safetyscreen: Bradykinin B2", "type": "binding", "conditions": "read-out: % Inh. Bradykinin B2"}, "[1]": {"biological_target": "T2, Cholinesterase, Acetyl, ACES (Homo sapiens, UniProt P22303)", "T2 construct": "Eurofins Cerep Panlabs (contract panel)", "T2 sequence (P22303 32-614)": "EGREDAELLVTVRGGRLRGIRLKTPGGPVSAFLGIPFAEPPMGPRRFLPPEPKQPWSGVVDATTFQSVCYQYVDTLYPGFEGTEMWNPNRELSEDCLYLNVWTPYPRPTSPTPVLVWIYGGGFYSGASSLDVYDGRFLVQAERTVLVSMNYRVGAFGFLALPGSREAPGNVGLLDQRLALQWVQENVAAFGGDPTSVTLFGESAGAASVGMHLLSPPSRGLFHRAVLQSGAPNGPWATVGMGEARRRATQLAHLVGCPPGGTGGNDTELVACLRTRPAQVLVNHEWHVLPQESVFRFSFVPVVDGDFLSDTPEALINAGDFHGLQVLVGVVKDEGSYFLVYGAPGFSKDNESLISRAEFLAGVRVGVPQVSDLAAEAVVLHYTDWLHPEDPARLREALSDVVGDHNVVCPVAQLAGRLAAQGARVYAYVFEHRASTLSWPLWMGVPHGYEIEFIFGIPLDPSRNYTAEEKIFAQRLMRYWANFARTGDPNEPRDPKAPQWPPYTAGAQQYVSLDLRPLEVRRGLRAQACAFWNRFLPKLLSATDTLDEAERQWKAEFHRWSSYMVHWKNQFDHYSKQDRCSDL", "assay": "Safetyscreen: Acetyl cholinesterase", "type": "biochemical", "conditions": "read-out: % Inh. Cholinesterase, Acetyl, ACES"}, "Glutamate, AMPA": {"test_system": "Glutamate, AMPA", "assay": "Safetyscreen: Glutamate, AMPA", "type": "binding, rat", "conditions": "10 μM"}, "[2]": {"assay": "Toxicity observations with Raldh1-INH", "conditions": "mouse, in vivo"}, "[3]": {"test_system": "Glutamate, NMDA, Phencyclidine", "assay": "Safetyscreen: NMDA, Phencyclidine", "type": "binding, rat", "conditions": "10 μM"}, "Tachykinin NK1": {"biological_target": "T3, Tachykinin NK1 (Homo sapiens, UniProt P25103)", "T3 construct": "Eurofins Cereps Panlabs (contract panel)", "T3 sequence (P25103 whole entry)": "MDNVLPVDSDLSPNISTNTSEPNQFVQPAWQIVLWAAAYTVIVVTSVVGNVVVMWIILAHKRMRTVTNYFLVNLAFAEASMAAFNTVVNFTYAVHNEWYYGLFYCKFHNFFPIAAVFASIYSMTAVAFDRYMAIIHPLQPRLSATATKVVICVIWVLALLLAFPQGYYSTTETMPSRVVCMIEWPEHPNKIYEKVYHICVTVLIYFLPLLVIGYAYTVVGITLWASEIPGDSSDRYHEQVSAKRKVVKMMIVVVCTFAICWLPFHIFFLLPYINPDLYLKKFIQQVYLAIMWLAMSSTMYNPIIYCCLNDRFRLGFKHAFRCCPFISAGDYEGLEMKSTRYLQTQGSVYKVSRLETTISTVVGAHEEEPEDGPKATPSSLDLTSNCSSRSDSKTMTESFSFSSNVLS", "assay": "Safetyscreen: Tachykinin NK1", "type": "binding", "conditions": "read-out: % Inh. Tachykinin NK1"}, "Adrenergic α1B": {"biological_target": "T4, Adrenergic α1B (Rattus norvegicus, UniProt P15823)", "T4 construct": "Eurofins Cerep Panlabs (contract panel)", "T4 sequence (P15823 whole entry)": "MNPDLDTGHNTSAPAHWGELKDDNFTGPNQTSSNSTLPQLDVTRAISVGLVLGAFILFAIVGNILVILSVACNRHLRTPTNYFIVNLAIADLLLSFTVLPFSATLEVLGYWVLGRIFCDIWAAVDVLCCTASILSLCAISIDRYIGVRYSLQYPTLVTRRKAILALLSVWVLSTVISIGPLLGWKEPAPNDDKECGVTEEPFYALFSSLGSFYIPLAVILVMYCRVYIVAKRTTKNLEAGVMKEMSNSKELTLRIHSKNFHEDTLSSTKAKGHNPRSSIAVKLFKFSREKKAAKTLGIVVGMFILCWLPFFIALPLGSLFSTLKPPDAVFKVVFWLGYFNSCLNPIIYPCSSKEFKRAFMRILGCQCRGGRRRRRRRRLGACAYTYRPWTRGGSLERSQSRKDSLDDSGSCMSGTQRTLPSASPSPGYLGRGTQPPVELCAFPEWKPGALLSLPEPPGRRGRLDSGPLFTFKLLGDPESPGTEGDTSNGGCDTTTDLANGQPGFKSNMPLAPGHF", "assay": "Safetyscreen: Adrenergic α1B", "type": "binding", "conditions": "read-out: % Inh. Adrenergic α1B"}, "SNU398 cells": {"test_system": "SNU398 cells", "assay": "In vitro proliferation and viability of human HCC cell lines", "type": "cell-based", "conditions": "SNU398, 1, 10, 100 and 1000 nM", "experimental": "FIG. 20D: LC-MS for ATRA on Hepa1-6 (mouse HCC cell line) or SNU398 (human HCC cell line). […] Two independent experiments were performed with at least three replicates per experimental group. Unpaired t test, two-tailed. *, P<0.05; **, P<0.01; ***, P<0.001. […] Cell proliferation was measured by counting live cell numbers at each time point. […] Cell proliferation was measured by counting live cell numbers at each time point.\nCell viability was measured by flow cytometry (FCM) with 7-AAD staining (Y-axis indicates percentage of 7-AAD negative cells).\n1×10^4~2×10^5 of Huh7, Huh1, Hepa 1-6, and Hep55 tumor cells were plated in triplicate in 48-well plates or 6-well plates. Viable cell numbers were counted every day for three to four days."}, "Opiate μ(OP3, MOP)": {"biological_target": "T5, Opiate μ(OP3, MOP) (Homo sapiens, UniProt P35372)", "T5 construct": "Eurofins Cereps Panlabs (contract panel)", "T5 sequence (P35372 whole entry)": "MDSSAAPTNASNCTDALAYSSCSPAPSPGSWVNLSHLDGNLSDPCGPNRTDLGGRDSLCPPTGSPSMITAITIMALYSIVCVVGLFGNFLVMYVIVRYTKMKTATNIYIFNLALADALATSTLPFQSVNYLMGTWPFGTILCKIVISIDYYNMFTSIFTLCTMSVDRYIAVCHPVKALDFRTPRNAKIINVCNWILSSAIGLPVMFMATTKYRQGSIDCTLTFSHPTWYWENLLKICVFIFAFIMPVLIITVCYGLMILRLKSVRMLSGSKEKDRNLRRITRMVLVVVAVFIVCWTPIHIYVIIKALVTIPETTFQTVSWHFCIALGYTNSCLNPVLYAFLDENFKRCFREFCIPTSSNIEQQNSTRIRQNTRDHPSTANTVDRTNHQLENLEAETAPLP", "assay": "Safetyscreen: Opiate μ", "type": "binding", "conditions": "read-out: % Inh. Opiate μ(OP3, MOP)"}, "[4]": {"biological_target": "T6, Serotonin (5-Hydroxytryptamine) 5-HT1B (Homo sapiens, UniProt P28222)", "T6 construct": "Eurofins Cereps Panlabs (contract panel)", "T6 sequence (P28222 whole entry)": "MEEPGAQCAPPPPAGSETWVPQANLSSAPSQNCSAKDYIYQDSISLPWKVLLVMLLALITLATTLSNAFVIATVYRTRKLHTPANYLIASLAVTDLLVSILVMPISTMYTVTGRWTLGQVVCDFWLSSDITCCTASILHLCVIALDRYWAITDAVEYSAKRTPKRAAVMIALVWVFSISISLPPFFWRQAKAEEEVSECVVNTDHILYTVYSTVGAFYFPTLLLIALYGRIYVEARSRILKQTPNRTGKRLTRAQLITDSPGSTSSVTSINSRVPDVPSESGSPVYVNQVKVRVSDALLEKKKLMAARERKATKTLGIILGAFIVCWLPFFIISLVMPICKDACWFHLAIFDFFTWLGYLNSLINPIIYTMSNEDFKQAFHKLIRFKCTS", "assay": "Safetyscreen: 5-HT1B", "type": "binding", "conditions": "read-out: % Inh. Serotonin (5-Hydroxytryptamine) 5-HT1B"}, "[5]": {"biological_target": "T7, Transporter, Serotonin (5-Hydroxytryptamine) (SERT) (Homo sapiens, UniProt P31645)", "T7 construct": "purchased Eurofins Cereps Panlabs", "T7 sequence (P31645 whole entry)": "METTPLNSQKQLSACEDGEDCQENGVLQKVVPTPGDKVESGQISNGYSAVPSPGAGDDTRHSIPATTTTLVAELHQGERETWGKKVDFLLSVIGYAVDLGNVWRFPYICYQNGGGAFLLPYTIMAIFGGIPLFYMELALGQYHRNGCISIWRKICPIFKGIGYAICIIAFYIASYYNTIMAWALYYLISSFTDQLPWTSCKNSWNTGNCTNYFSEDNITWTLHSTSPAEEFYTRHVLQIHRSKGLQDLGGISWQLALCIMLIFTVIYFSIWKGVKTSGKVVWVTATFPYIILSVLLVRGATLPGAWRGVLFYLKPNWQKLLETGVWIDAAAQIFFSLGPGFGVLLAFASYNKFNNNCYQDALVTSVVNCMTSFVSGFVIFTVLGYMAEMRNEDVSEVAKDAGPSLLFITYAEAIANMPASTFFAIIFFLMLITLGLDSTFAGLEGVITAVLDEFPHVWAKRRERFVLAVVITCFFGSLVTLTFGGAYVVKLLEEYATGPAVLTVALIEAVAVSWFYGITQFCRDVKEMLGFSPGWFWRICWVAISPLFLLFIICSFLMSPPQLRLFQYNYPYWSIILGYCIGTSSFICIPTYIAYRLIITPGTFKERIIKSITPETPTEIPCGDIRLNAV", "assay": "Safetyscreen: SERT", "type": "binding", "conditions": "read-out: % Inh. Transporter, Serotonin (5-Hydroxytryptamine) (SERT)"}, "[6]": {"test_system": "GABAA, Ro-15-1788, Hippocampus", "assay": "Safetyscreen: GABAA, Ro-15-1788", "type": "binding, rat", "conditions": "10 μM"}, "Histamine H2": {"biological_target": "T8, Histamine H2 (Homo sapiens, UniProt P25021)", "T8 construct": "purchased Eurofins Cereps Panlabs", "T8 sequence (P25021 whole entry)": "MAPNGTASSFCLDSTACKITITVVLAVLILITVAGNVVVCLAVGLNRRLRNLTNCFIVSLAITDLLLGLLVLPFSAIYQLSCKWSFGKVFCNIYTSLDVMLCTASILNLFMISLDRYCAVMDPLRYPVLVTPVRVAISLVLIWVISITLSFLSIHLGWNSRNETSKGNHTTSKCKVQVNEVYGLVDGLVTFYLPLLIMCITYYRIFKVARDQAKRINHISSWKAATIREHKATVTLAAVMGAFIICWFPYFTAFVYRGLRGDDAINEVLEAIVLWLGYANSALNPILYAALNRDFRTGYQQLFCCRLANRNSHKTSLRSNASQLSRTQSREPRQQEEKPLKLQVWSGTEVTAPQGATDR", "assay": "Safetyscreen: Histamine H2", "type": "binding", "conditions": "read-out: % Inh. Histamine H2"}, "primary human monocytes": {"test_system": "primary human monocytes", "assay": "Human monocyte DC differentiation with SNU398 cells or conditioned media", "type": "cell-based", "description": "FIGS. 22A-22E: RALDH1 inhibition blocks RA-mediated effects of HCC on monocyte differentiation. FIGS. 22A-22B: Circulating primary human monocytes from donors (FIG. 22A) or murine monocytes from bone marrow (FIG. 22B) were cocultured with SNU398 (Human HCC) cells or treated with SNU398-conditioned media (CM) in a DC differentiation system (GM-CSF and IL-4). Two-color histograms show the frequencies of DCs (CD11c^+CD1a^+ for human and CD11c^+MHCII^+ for mouse). The presence of SNU398 or its CM suppressed DC differentiation, which is reversed when SNU398 cells are treated with C86. Three or more independent experiments were performed with at least three replicates per experimental group. Unpaired t test, two-tailed. FIG. 22C: Huh7 (human HCC) cells were subcutaneously injected into flanks of NU/J mice. […] The frequencies of the host (murine) DCs (CD45^+F4/80^−CD11C^+MHCII-high) and macrophages (CD45^+F4/80^+) are quantified in a bar graph. […] Shown are the representative FCM plot (histogram) and DC quantification (bar graph). […]\nMouse monocytes were isolated from bone marrow as described herein and then cultured in RPMI 1640 (ThermoFisher Scientific, Cat #11875085) with 10% fetal bovine serum (GeminiBio, Cat #100-500). […] Cellular identity and function of differentiated monocytes was assessed by flow cytometry and quantitative PCR (qPCR)."}}}
{"smiles": "CS(=O)(=O)N1CCN(C(=O)c2cnc3ccc(F)cc3c2N2CCC(C#N)(c3ccccc3)CC2)CC1", "note": "[Compound C-86, 1-(6-fluoro-3-(4-(methylsulfonyl)piperazine-1-carbonyl)quinolin-4-yl)-4-phenylpiperidine-4-carbonitrile]", "values": [{"measurement": "inhibition at 10 µM", "setting": "Bradykinin B2", "result": 2, "unit": "%"}, {"measurement": "inhibition at 10 µM", "setting": "[1]", "result": 3, "unit": "%"}, {"measurement": "% Inh. Glutamate, AMPA", "setting": "Glutamate, AMPA", "result": 0, "unit": "%"}, {"measurement": "signs of toxicity", "setting": "[2]", "result": "no signs of toxicity have been observed"}, {"measurement": "% Inh. Glutamate, NMDA, Phencyclidine", "setting": "[3]", "result": 5, "unit": "%"}, {"measurement": "inhibition at 10 µM", "setting": "Tachykinin NK1", "result": 37, "unit": "%"}, {"measurement": "inhibition at 10 µM", "setting": "Adrenergic α1B", "result": 6, "unit": "%"}, {"measurement": "HCC cell growth in vitro", "setting": "SNU398 cells", "result": "did not inhibit HCC cell growth in vitro"}, {"measurement": "inhibition at 10 µM", "setting": "Opiate μ(OP3, MOP)", "result": 19, "unit": "%"}, {"measurement": "inhibition at 10 µM", "setting": "[4]", "result": -21, "unit": "%"}, {"measurement": "inhibition at 10 µM", "setting": "[5]", "result": 17, "unit": "%"}, {"measurement": "% Inh. GABAA, Ro-15-1788, Hippocampus", "setting": "[6]", "result": "−7", "unit": "%"}, {"measurement": "inhibition at 10 µM", "setting": "Histamine H2", "result": -3, "unit": "%"}, {"measurement": "potential of monocytes to differentiate into DCs", "setting": "primary human monocytes; direct treatment of monocytes in vitro", "result": "did not alter"}, {"measurement": "suppression of DC differentiation by HCC cells or CM", "setting": "primary human monocytes; human monocytes, HCC cells pre-treated", "result": "reversed"}]}
